Data on 27 molecules can be found in US10385022B2, “3-amino-pyridines as GPBAR1 agonists” (HOFFMANN-LA ROCHE INC., priority 2011, dated 2019).

This assay addresses human GPBAR1 receptor (Homo sapiens (Human), UniProt Q8TDU6). Nature of the assay: functional cAMP assay in CHO-dhfr(minus) cells expressing human GPBAR1 receptors. It is filed as cell-based. To be noted: CHO-dhfr(minus) cells expressing human GPBAR1, 30 min at 30° C. The procedure, abridged: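 Functional cAMP responses in a human GPBAR1-transfected CHO-dhfr- clone, picked using lithocholic acid as agonist, gave the EC50 values. Parallel testing in untransfected CHO cells served as a specificity control.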

human GPBAR1 receptor, sequence (Q8TDU6 whole entry): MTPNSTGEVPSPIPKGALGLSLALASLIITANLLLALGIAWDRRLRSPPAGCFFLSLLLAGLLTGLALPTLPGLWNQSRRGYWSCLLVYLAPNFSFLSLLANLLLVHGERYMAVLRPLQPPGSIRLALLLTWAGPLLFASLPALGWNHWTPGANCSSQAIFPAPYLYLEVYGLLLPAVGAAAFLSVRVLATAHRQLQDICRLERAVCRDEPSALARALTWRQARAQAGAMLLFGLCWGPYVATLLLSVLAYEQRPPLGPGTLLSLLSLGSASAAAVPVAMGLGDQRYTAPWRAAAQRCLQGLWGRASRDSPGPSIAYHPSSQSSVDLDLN

For orientation: EC50 means the concentration needed to bring the measured effect to its halfway point. The low end stands for greater potency, the high end for weaker potency. For `COC(=O)CN(C(=O)c1cc(C(F)(F)F)cc(S(C)(=O)=O)c1)c1cnccc1-c1cc(F)ccc1OC` [Example 297, [[4-(5-Fluoro-2-methoxy-phenyl)-pyridin-3-yl]-(3-methanesulfonyl-5-trifluoromethyl-benzoyl)-amino]-acetic acid methyl ester], the EC50 is 521 nM.
Under `CS(=O)(=O)c1cc(C(=O)N(CC(F)(F)F)c2cnccc2-c2ccccc2OC(F)(F)F)cc(C(F)(F)F)c1` [Example 298, 3-Methanesulfonyl-N-(2,2,2-trifluoro-ethyl)-N-[4-(2-trifluoromethoxy-phenyl)-pyridin-3-yl]-5-trifluoromethyl-benzamide] stands 788 nM; under `COc1cc(F)ccc1-c1ccncc1N(C[C@@H]1CCCOC1)C(=O)c1cc(C(F)(F)F)cc(S(C)(=O)=O)c1` [Example 299, (+)-N-[4-(4-Fluoro-2-methoxy-phenyl)-pyridin-3-yl]-3-methanesulfonyl-N-[1-(tetrahydro-pyran-3-yl)methyl]-5-trifluoromethyl-benzamide], 952 nM; under `Cc1cc(-c2ccccc2Cl)c(N(CC(F)(F)F)C(=O)c2cc(C(F)(F)F)cc(S(C)(=O)=O)c2)cn1` [Example 300, N-[4-(2-Chloro-phenyl)-6-methyl-pyridin-3-yl]-3-methanesulfonyl-N-(2,2,2-trifluoro-ethyl)-5-trifluoromethyl-benzamide], 831 nM.
The result for `COc1cc(F)ccc1-c1cc(C)ncc1N(C)C(=O)c1cc(Cl)cc(S(C)(=O)=O)c1` [Example 301, 3-Chloro-N-[4-(4-fluoro-2-methoxy-phenyl)-6-methyl-pyridin-3-yl]-5-methanesulfonyl-N-methyl-benzamide] reads 219 nM; that for `COc1cc(F)ccc1-c1cc(C)ncc1N(C)C(=O)c1cc(C(F)(F)F)cc(S(=O)(=O)N2CCOCC2)c1` [Example 302, N-[4-(4-Fluoro-2-methoxy-phenyl)-6-methyl-pyridin-3-yl]-N-methyl-3-(morpholine-4-sulfonyl)-5-trifluoromethyl-benzamide], > 10000 nM.
Under `COc1cc(F)ccc1-c1cc(C)ncc1N(C)C(=O)c1cc(Br)cc(C(F)(F)F)c1` [Example 303, 3-Bromo-N-[4-(4-fluoro-2-methoxy-phenyl)-6-methyl-pyridin-3-yl]-N-methyl-5-trifluoromethyl-benzamide] stands 18 nM; under `COc1cc(F)ccc1-c1ccncc1N(C)C(=O)c1cc(C(F)(F)F)cc(S(=O)(=O)N2CCS(=O)(=O)CC2)c1` [Example 304, 3-(1,1-Dioxo-thiomorpholine-4-sulfonyl)-N-[4-(4-fluoro-2-methoxy-phenyl)-pyridin-3-yl]-N-methyl-5-trifluoromethyl-benzamide], 15 nM.
As to `COc1cc(F)ccc1-c1ccncc1N(C)C(=O)c1cc(C(F)(F)F)cc(S(=O)(=O)N2CC3(COC3)C2)c1` [Example 305, N-[4-(4-Fluoro-2-methoxy-phenyl)-pyridin-3-yl]-N-methyl-3-(2-oxa-6-aza-spiro[3.3]heptane-6-sulfonyl)-5-trifluoromethyl-benzamide], the response was half-maximal at 5 nM (EC50).
Under `COc1cc(F)ccc1-c1ccncc1N(CCS(C)(=O)=O)C(=O)c1cc(C(F)(F)F)cc(S(C)(=O)=O)c1` [Example 306, N-[4-(4-Fluoro-2-methoxy-phenyl)-pyridin-3-yl]-3-methanesulfonyl-N-(2-methanesulfonyl-ethyl)-5-trifluoromethyl-benzamide] stands 190 nM.
For `COc1cc(F)ccc1-c1cc(C)ncc1N(CC(F)(F)F)C(=O)c1cc(C(F)(F)F)cc(S(C)(=O)=O)c1` [Example 307, N-[4-(4-Fluoro-2-methoxy-phenyl)-6-methyl-pyridin-3-yl]-3-methanesulfonyl-N-(2,2,2-trifluoro-ethyl)-5-trifluoromethyl-benzamide], a half-maximal effect (EC50) was put at 300 nM.
With `CS(=O)(=O)CCN(C(=O)c1cc(C(F)(F)F)cc(S(C)(=O)=O)c1)c1cnccc1-c1ccccc1OC(F)(F)F` [Example 308, 3-Methanesulfonyl-N-(2-methanesulfonyl-ethyl)-N-[4-(2-trifluoromethoxy-phenyl)-pyridin-3-yl]-5-trifluoromethyl-benzamide], the EC50 was 936 nM.
Turning to `COc1ccc(F)cc1-c1ccncc1N(CC(N)=O)C(=O)c1cc(C(F)(F)F)cc(S(C)(=O)=O)c1` [Example 309, N-Carbamoylmethyl-N-[4-(5-fluoro-2-methoxy-phenyl)-pyridin-3-yl]-3-methanesulfonyl-5-trifluoromethyl-benzamide], a half-maximal response (EC50) required 273 nM.
`COc1cc(F)ccc1-c1cc(C)ncc1N(C)C(=O)c1cc(SC2COC2)cc(C(F)(F)F)c1` [Example 310, N-[4-(4-Fluoro-2-methoxy-phenyl)-6-methyl-pyridin-3-yl]-N-methyl-3-(oxetan-3-ylsulfanyl)-5-trifluoromethyl-benzamide] came in with an EC50 of 41 nM.
In turn, `CS(=O)(=O)c1cc(C(=O)N(CC#N)c2cnccc2-c2ccccc2OC(F)(F)F)cc(C(F)(F)F)c1` [Example 311, N-Cyanomethyl-3-methanesulfonyl-N-[4-(2-trifluoromethoxy-phenyl)-pyridin-3-yl]-5-trifluoromethyl-benzamide] returned an EC50 of 81 nM.
Under `COc1cc(F)ccc1-c1cc(C)ncc1N(C)C(=O)c1cc(SCCCCC(=O)O)cc(C(F)(F)F)c1` [Example 312, 5-(3-{[4-(4-Fluoro-2-methoxy-phenyl)-6-methyl-pyridin-3-yl]-methyl-carbamoyl}-5-trifluoromethyl-phenylsulfanyl)-pentanoic acid] stands 2420 nM.
`CN(C(=O)c1cc(C(F)(F)F)cc(S(C)(=O)=O)c1)c1cnccc1-c1cccnc1Cl` [Example 313, N-(2-Chloro-[3,4′]bipyridinyl-3′-yl)-3-methanesulfonyl-N-methyl-5-trifluoromethyl-benzamide] came in with a concentration giving a half-maximal response (EC50) of 1220 nM.
Under `COc1cc(F)ccc1-c1cc(C)ncc1N(C)C(=O)c1cc(C(F)(F)F)cc(S(=O)(=O)C2COC2)c1` [Example 314, N-[4-(4-Fluoro-2-methoxy-phenyl)-6-methyl-pyridin-3-yl]-N-methyl-3-(oxctane-3-sulfonyl)-5-trifluoromethyl-benzamide] stands 115 nM; under `COc1cc(F)ccc1-c1cc(C)ncc1N(C)C(=O)c1cc(SCCCCC(=O)NCC(=O)O)cc(C(F)(F)F)c1` [Example 315, [5-(3-{[4-(4-Fluoro-2-methoxy-phenyl)-6-methyl-pyridin-3-yl]-methyl-carbamoyl}-5-trifluoromethyl-phenylsulfanyl)-pentanoylamino]-acetic acid], 451 nM; under `COc1cc(F)c(Cl)cc1-c1cc(C)ncc1N(C)C(=O)c1cc(C(F)(F)F)cc(S(=O)(=O)CCCCC(=O)O)c1` [Example 316, 5-(3-{[4-(5-Chloro-4-fluoro-2-methoxy-phenyl)-6-methyl-pyridin-3-yl]-methyl-carbamoyl}-5-trifluoromethyl-benzenesulfonyl)-pentanoic acid], 926 nM.
`COc1cc(F)ccc1-c1cc(C)ncc1N(C)C(=O)c1cc(C(F)(F)F)cc(S(=O)(=O)CCCCC(=O)NCC(=O)O)c1` [Example 317, [5-(3-{[4-(4-Fluoro-2-methoxy-phenyl)-6-methyl-pyridin-3-yl]-methyl-carbamoyl}-5-trifluoromethyl-benzenesulfonyl)-pentanoylamino]-acetic acid] showed an EC50 of 418 nM.
The molecule `Cc1cc(-c2ccccc2OC2COC2)c(N(C)C(=O)c2cc(C(F)(F)F)cc(S(C)(=O)=O)c2)cn1` [Example 318, 3-Methanesulfonyl-N-methyl-N-{6-methyl-4-[2-(oxetan-3-yloxy)-phenyl]-pyridin-3-yl}-5-trifluoromethyl-benzamide] showed a 50% effective concentration (EC50) of 1110 nM.
The result for `CS(=O)(=O)c1cc(C(=O)N(CC(N)=O)c2cnccc2-c2ccccc2OC(F)(F)F)cc(C(F)(F)F)c1` [Example 319, N-Carbamoylmethyl-3-methanesulfonyl-N-[4-(2-trifluoromethoxy-phenyl)-pyridin-3-yl]-5-trifluoromethyl-benzamide] reads 3340 nM; that for `CN(C(=O)c1cc(C(F)(F)F)cc(S(C)(=O)=O)c1)c1cnccc1-c1cccnc1OC1CN(C(=O)OC(C)(C)C)C1` [Example 320, 3-{3′-[(3-Methanesulfonyl-5-trifluoromethyl-benzoyl)-methyl-amino]-[3,4′]bipyridinyl-2-yloxy}-azetidine-1-carboxylic acid tert-butyl ester], 2720 nM.
Under `Cc1cc(-c2ccccc2OCC2COC2)c(N(C)C(=O)c2cc(C(F)(F)F)cc(S(C)(=O)=O)c2)cn1` [Example 321, 3-Methanesulfonyl-N-methyl-N-{6-methyl-4-[2-(oxetan-3-ylmethoxy)-phenyl]-pyridin-3-yl}-5-trifluoromethyl-benzamide] stands 1880 nM.
Under `CN(C(=O)c1cc(C(F)(F)F)cc(C(F)(F)F)c1)c1cnccc1-c1ccccc1` [Example 322, N-Methyl-N-(4-phenyl-pyridin-3-yl)-3,5-bis-trifluoromethyl-benzamide] stands 11 nM.
`CN(C(=O)c1cc(C(F)(F)F)cc(S(C)(=O)=O)c1)c1cnccc1-c1ccccc1` [Example 323, 3-Methanesulfonyl-N-methyl-N-(4-phenyl-pyridin-3-yl)-5-trifluoromethyl-benzamide] registered an EC50 of 104 nM.
